The record followed here is US11389407B2, “Cochleates and methods of using the same to enhance tissue penetration of pharmacologically active agent” (priority 2015, dated 2022).

The subject of this assay is Candida albicans. Put plainly: Minimum inhibitory concentration (MIC). Format: cell-based.

≈ marks a conversion by molar mass, not a printed value.

On to `C[C@@H]1[C@H](O)[C@@H](C)/C=C/C=C/C=C/C=C/C=C/C=C/C=C/[C@H](O[C@@H]2O[C@H](C)[C@@H](O)[C@H](N)[C@@H]2O)C[C@@H]2O[C@](O)(C[C@@H](O)C[C@@H](O)[C@H](O)CC[C@@H](O)C[C@@H](O)CC(=O)O[C@H]1C)C[C@H](O)[C@H]2C(=O)O` [AmB, amphotericin B], for which the “minimum inhibitory concentration (MIC)” value stood at 0.25 µg/mL (≈ 0.271 µM).
